# Test results from ChEMBL document CHEMBL1759931, “Potent and selective adenosine A(2A) receptor antagonists: [1,2,4]-triazolo[4,3-c]pyrimidin-3-ones” (Bioorg Med Chem Lett, 2011).
# Tested on: Rattus norvegicus
# Assay: Inhibition of haloperidol -induced catalepsy in rat at 10 mg/kg, po measured after 1 hr
# Assay type: functional
# Details: not given
row,SMILES,inhibition in vivo at 10 mg/kg
1,COCCOc1ccc(N2CCN(CCn3ncc4c3nc(N)n3nc(-c5ccco5)nc43)CC2)cc1 [PRELADENANT],75%
2,C=Cn1ncc2c1nc(N)n1c(=O)n(Cc3cccc(Cl)c3)nc21,13%
3,C=Cn1ncc2c1nc(N)n1c(=O)n(Cc3ccccc3)nc21,0%
4,Nc1nc2c(c3nn(Cc4ccccc4)c(=O)n13)CCc1ccccc1-2,0%
5,CN(C)CCn1ncc2c1nc(N)n1c(=O)n(Cc3cccc(Cl)c3)nc21,13%

# Tested on: Rattus norvegicus
# Assay: Inhibition of haloperidol -induced catalepsy in rat at 10 mg/kg, po measured after 4 hrs
# Assay type: functional
# Details: not given
row,SMILES,inhibition in vivo at 10 mg/kg
1,COCCOc1ccc(N2CCN(CCn3ncc4c3nc(N)n3nc(-c5ccco5)nc43)CC2)cc1 [PRELADENANT],80%
2,C=Cn1ncc2c1nc(N)n1c(=O)n(Cc3cccc(Cl)c3)nc21,15%
3,C=Cn1ncc2c1nc(N)n1c(=O)n(Cc3ccccc3)nc21,8%
4,Nc1nc2c(c3nn(Cc4ccccc4)c(=O)n13)CCc1ccccc1-2,18%
5,CN(C)CCn1ncc2c1nc(N)n1c(=O)n(Cc3cccc(Cl)c3)nc21,20%

# Organism: Homo sapiens
# Assay: Ratio of Ki for human adenosine A1 receptor to Ki for human adenosine A2A receptor
# Details: not given
row,SMILES,Ratio Ki
1,CS(=O)(=O)N1CCN(CCn2ncc3c2nc(N)n2c(=O)n(Cc4cccc(Cl)c4)nc32)CC1,133
2,Nc1nc(-c2cccc(CO)c2)cc2nn(Cc3ccccc3)c(=O)n12,1
3,C=Cn1ncc2c1nc(N)n1c(=O)n(Cc3cccc(Cl)c3)nc21,356
4,Nc1nc2c(cnn2CCN2CCC(N3CCOCC3)CC2)c2nn(Cc3cccc(Cl)c3)c(=O)n12,224
5,Nc1nc(-c2ccccc2)cc2nc(-c3ccco3)nn12,3
6,Nc1nc2c(cnn2CCN2CCC3(CC2)OCCO3)c2nn(Cc3cccc(Cl)c3)c(=O)n12,127
7,COCCOc1ccc(N2CCN(CCn3ncc4c3nc(N)n3c(=O)n(Cc5cccc(Cl)c5)nc43)CC2)c(F)c1,90
8,Nc1nc2c(cnn2CCN2CCOCC2)c2nn(Cc3ccccc3)c(=O)n12,156
9,Nc1nc2c(cnn2CCN2CCC(N3CCOCC3)CC2)c2nn(Cc3ccccc3)c(=O)n12,53
10,C=Cn1ncc2c1nc(N)n1c(=O)n(Cc3ccccc3)nc21,1120
11,Nc1nc2c(cnn2CCN2CCN(c3cnccn3)CC2)c2nn(Cc3ccccc3)c(=O)n12,110
12,Nc1nc2c(c3nn(Cc4ccccc4)c(=O)n13)CCc1ccccc1-2,43
13,Nc1nc(-c2ccccc2)cc2nn(Cc3ccccc3)c(=O)n12,26
14,COc1ccc(-c2cc3nn(Cc4ccccc4)c(=O)n3c(N)n2)cc1,2
15,Nc1nc2c(cnn2CCN2CCN(c3cnccn3)CC2)c2nn(Cc3cccc(Cl)c3)c(=O)n12,109
16,Nc1nc2c(cnn2CCN2CCC3(CC2)OCCO3)c2nn(Cc3ccccc3)c(=O)n12,162
17,Nc1nc(-c2cccnc2)cc2nn(Cc3ccccc3)c(=O)n12,2
18,CS(=O)(=O)N1CCN(CCn2ncc3c2nc(N)n2c(=O)n(Cc4ccccc4)nc32)CC1,157
19,CN(C)CCn1ncc2c1nc(N)n1c(=O)n(Cc3cccc(Cl)c3)nc21,269
20,CC(C)(C)OC(=O)N1CCN(CCn2ncc3c2nc(N)n2c(=O)n(Cc4cccc(Cl)c4)nc32)CC1,2
21,Nc1nc2c(cnn2CCN2CCOCC2)c2nn(Cc3cccc(Cl)c3)c(=O)n12,99
22,Nc1nc2c(cnn2CCN2CCOCC2)c2nn(CC3CC3)c(=O)n12,4
23,C=Cn1ncc2c1nc(N)n1c(=O)n(CC3CC3)nc21,55
24,Nc1nc2c(cnn2CCN2CCN(c3ccc(F)cc3F)CC2)c2nn(Cc3cccc(Cl)c3)c(=O)n12,60

# Target: Adenosine receptor A2a (Homo sapiens, UniProt P29274)
# Sequence (P29274 whole entry): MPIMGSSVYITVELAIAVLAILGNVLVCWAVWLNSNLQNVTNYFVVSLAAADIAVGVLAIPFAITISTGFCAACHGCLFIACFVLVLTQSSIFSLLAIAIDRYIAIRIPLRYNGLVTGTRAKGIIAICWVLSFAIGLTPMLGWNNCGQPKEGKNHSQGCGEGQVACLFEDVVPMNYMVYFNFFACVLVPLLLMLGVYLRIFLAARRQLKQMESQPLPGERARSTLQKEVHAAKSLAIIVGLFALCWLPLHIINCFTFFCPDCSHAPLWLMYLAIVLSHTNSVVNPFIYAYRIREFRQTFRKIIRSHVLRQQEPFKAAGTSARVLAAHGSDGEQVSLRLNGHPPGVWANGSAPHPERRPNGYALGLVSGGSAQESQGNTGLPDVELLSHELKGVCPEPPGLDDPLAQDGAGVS
# Assay: Antagonist activity against human adenosine A2A receptor
# Assay type: functional
# Details: not given
row,SMILES,Ki
1,CS(=O)(=O)N1CCN(CCn2ncc3c2nc(N)n2c(=O)n(Cc4cccc(Cl)c4)nc32)CC1,10.5 nM
2,CN(C)CCn1ncc2c1nc(N)n1c(=O)n(CC3CC3)nc21,> 1500 nM
3,Nc1nc(-c2cccc(CO)c2)cc2nn(Cc3ccccc3)c(=O)n12,1700 nM
4,C=Cn1ncc2c1nc(N)n1c(=O)n(Cc3cccc(Cl)c3)nc21,0.4 nM
5,Nc1nc2c(cnn2CCN2CCC(N3CCOCC3)CC2)c2nn(Cc3cccc(Cl)c3)c(=O)n12,6.7 nM
6,CN(C)CCn1ncc2c1nc(N)n1c(=O)n(Cc3ccccc3)nc21,> 1500 nM
7,Nc1nc(-c2ccccc2)cc2nc(-c3ccco3)nn12,7 nM
8,Nc1nc2c(cnn2CCN2CCC3(CC2)OCCO3)c2nn(Cc3cccc(Cl)c3)c(=O)n12,11 nM
9,COCCOc1ccc(N2CCN(CCn3ncc4c3nc(N)n3c(=O)n(Cc5cccc(Cl)c5)nc43)CC2)c(F)c1,15.6 nM
10,Nc1nc2c(cnn2CCN2CCOCC2)c2nn(Cc3ccccc3)c(=O)n12,9 nM
11,Nc1nc2c(cnn2CCN2CCC(N3CCOCC3)CC2)c2nn(Cc3ccccc3)c(=O)n12,28.4 nM
12,C=Cn1ncc2c1nc(N)n1c(=O)n(Cc3ccccc3)nc21,0.3 nM
13,COCCOc1ccc(N2CCN(CCn3ncc4c3nc(N)n3c(=O)n(Cc5ccccc5)nc43)CC2)c(F)c1,> 1300 nM
14,Nc1nc2c(cnn2CCN2CCN(c3cnccn3)CC2)c2nn(Cc3ccccc3)c(=O)n12,12.7 nM
15,CC(C)(C)OC(=O)N1CCN(CCn2ncc3c2nc(N)n2c(=O)n(Cc4ccccc4)nc32)CC1,> 1300 nM
16,Nc1nc2c(c3nn(Cc4ccccc4)c(=O)n13)CCc1ccccc1-2,0.5 nM
17,Nc1nc(-c2ccccc2)cc2nn(Cc3ccccc3)c(=O)n12,1 nM
18,COc1ccc(-c2cc3nn(Cc4ccccc4)c(=O)n3c(N)n2)cc1,636 nM
19,Nc1nc2c(cnn2CCN2CCN(c3cnccn3)CC2)c2nn(Cc3cccc(Cl)c3)c(=O)n12,12.9 nM
20,Nc1nc2c(cnn2CCN2CCC3(CC2)OCCO3)c2nn(Cc3ccccc3)c(=O)n12,8.7 nM
21,Nc1nc(-c2cccnc2)cc2nn(Cc3ccccc3)c(=O)n12,791 nM
22,CS(=O)(=O)N1CCN(CCn2ncc3c2nc(N)n2c(=O)n(Cc4ccccc4)nc32)CC1,8.9 nM
23,CN(C)CCn1ncc2c1nc(N)n1c(=O)n(Cc3cccc(Cl)c3)nc21,5.2 nM
24,Nc1nc2c(cnn2CCN2CCN(c3ccc(F)cc3F)CC2)c2nn(Cc3ccccc3)c(=O)n12,> 1300 nM
25,CC(C)(C)OC(=O)N1CCN(CCn2ncc3c2nc(N)n2c(=O)n(Cc4cccc(Cl)c4)nc32)CC1,556 nM
26,Nc1nc2c(cnn2CCN2CCOCC2)c2nn(Cc3cccc(Cl)c3)c(=O)n12,14.2 nM
27,Nc1nc2c(cnn2CCN2CCOCC2)c2nn(CC3CC3)c(=O)n12,381 nM
28,C=Cn1ncc2c1nc(N)n1c(=O)n(CC3CC3)nc21,27.4 nM
29,Nc1nc2c(cnn2CCN2CCN(c3ccc(F)cc3F)CC2)c2nn(Cc3cccc(Cl)c3)c(=O)n12,23.4 nM

# Tested on: not listed separately
# Assay: AUC in rat at 3 mg/kg by LC-MS analysis
# Assay type: ADME, organism-based
# Design: dose 3 mg/kg
# Details: plasma
row,SMILES,AUC
1,C=Cn1ncc2c1nc(N)n1c(=O)n(Cc3ccccc3)nc21,0.248 µM·h
2,CN(C)CCn1ncc2c1nc(N)n1c(=O)n(Cc3cccc(Cl)c3)nc21,0.398 µM·h

# Tested on: Rattus norvegicus
# Assay: Intrinsic clearance in rat at 3 mg/kg
# Assay type: ADME, organism-based
# Design: dose 3 mg/kg
# Details: in vivo
row,SMILES,CL
1,C=Cn1ncc2c1nc(N)n1c(=O)n(Cc3cccc(Cl)c3)nc21,27.7 mL/min/kg
2,C=Cn1ncc2c1nc(N)n1c(=O)n(Cc3ccccc3)nc21,24.4 mL/min/kg
3,Nc1nc2c(c3nn(Cc4ccccc4)c(=O)n13)CCc1ccccc1-2,14.7 mL/min/kg
4,CN(C)CCn1ncc2c1nc(N)n1c(=O)n(Cc3cccc(Cl)c3)nc21,37.3 mL/min/kg

# Tested on: not listed separately
# Assay: Drug uptake in rat brain at 3 mg/kg measured after 6 hrs
# Assay type: ADME, organism-based
# Design: dose 3 mg/kg
# Details: read-out: Drug uptake
row,SMILES,concentration at 6 h
1,C=Cn1ncc2c1nc(N)n1c(=O)n(Cc3ccccc3)nc21,10 ng/g
2,Nc1nc2c(c3nn(Cc4ccccc4)c(=O)n13)CCc1ccccc1-2,10 ng/g
3,CN(C)CCn1ncc2c1nc(N)n1c(=O)n(Cc3cccc(Cl)c3)nc21,39 ng/g

# Tested on: not listed separately
# Assay: Solubility of the compound at pH 7.4
# Assay type: physicochemical
# Details: buffer
row,SMILES,solubility
1,COCCOc1ccc(N2CCN(CCn3ncc4c3nc(N)n3nc(-c5ccco5)nc43)CC2)cc1 [PRELADENANT],< 0.01 µg/mL

# Same assay, conditions: buffer, read-out: solubility
row,SMILES,solubility
1,CS(=O)(=O)N1CCN(CCn2ncc3c2nc(N)n2c(=O)n(Cc4cccc(Cl)c4)nc32)CC1,12 µM
2,CN(C)CCn1ncc2c1nc(N)n1c(=O)n(CC3CC3)nc21,> 250 µM
3,Nc1nc(-c2cccc(CO)c2)cc2nn(Cc3ccccc3)c(=O)n12,100 µM
4,C=Cn1ncc2c1nc(N)n1c(=O)n(Cc3cccc(Cl)c3)nc21,12 µM
5,CN(C)CCn1ncc2c1nc(N)n1c(=O)n(Cc3ccccc3)nc21,> 250 µM
6,COCCOc1ccc(N2CCN(CCn3ncc4c3nc(N)n3c(=O)n(Cc5cccc(Cl)c5)nc43)CC2)c(F)c1,12 µM
7,Nc1nc2c(cnn2CCN2CCOCC2)c2nn(Cc3ccccc3)c(=O)n12,175 µM
8,C=Cn1ncc2c1nc(N)n1c(=O)n(Cc3ccccc3)nc21,37 µM
9,COCCOc1ccc(N2CCN(CCn3ncc4c3nc(N)n3c(=O)n(Cc5ccccc5)nc43)CC2)c(F)c1,12 µM
10,Nc1nc2c(cnn2CCN2CCN(c3cnccn3)CC2)c2nn(Cc3ccccc3)c(=O)n12,50 µM
11,CC(C)(C)OC(=O)N1CCN(CCn2ncc3c2nc(N)n2c(=O)n(Cc4ccccc4)nc32)CC1,100 µM
12,COc1ccc(-c2cc3nn(Cc4ccccc4)c(=O)n3c(N)n2)cc1,25 µM
13,Nc1nc2c(cnn2CCN2CCN(c3cnccn3)CC2)c2nn(Cc3cccc(Cl)c3)c(=O)n12,25 µM
14,Nc1nc2c(cnn2CCN2CCC3(CC2)OCCO3)c2nn(Cc3ccccc3)c(=O)n12,75 µM
15,Nc1nc(-c2cccnc2)cc2nn(Cc3ccccc3)c(=O)n12,100 µM
16,CS(=O)(=O)N1CCN(CCn2ncc3c2nc(N)n2c(=O)n(Cc4ccccc4)nc32)CC1,75 µM
17,CN(C)CCn1ncc2c1nc(N)n1c(=O)n(Cc3cccc(Cl)c3)nc21,18 µM
18,CC(C)(C)OC(=O)N1CCN(CCn2ncc3c2nc(N)n2c(=O)n(Cc4cccc(Cl)c4)nc32)CC1,25 µM
19,Nc1nc2c(cnn2CCN2CCOCC2)c2nn(Cc3cccc(Cl)c3)c(=O)n12,25 µM
20,Nc1nc2c(cnn2CCN2CCOCC2)c2nn(CC3CC3)c(=O)n12,> 250 µM
21,C=Cn1ncc2c1nc(N)n1c(=O)n(CC3CC3)nc21,175 µM
